Our source for the IC50 values is patent publication US20170121322A1, “BET-PROTEIN INHIBITING 3,4-DIHYDROPYRIDO[2,3-B]PYRAZINONES WITH META-SUBSTITUTED AROMATIC AMINO- OR ETHER GROUPS” (Bayer Pharma Aktiengesellschaft, priority 2014, published 2017).

The subject of one experiment is MOLP-8 cells. The experiment can be described thus: Cell proliferation assay MOLP-8 (alamarBlue). The class given is cell-based. To be noted: Homo sapiens, multiple myeloma cells, 120 hours. How it is done: (§1) In accordance with the invention, the ability of the substances to inhibit cell proliferation was determined. Cell viability was determined by means of the alamarBlue® reagent (Invitrogen) in a Victor X3 Multilabel Reader (Perkin Elmer). The excitation wavelength was 530 nm and the emission wavelength […].
The MOLP-8 cells (DSMZ, ACC 569) were seeded at a concentration of 4000 cells/well in 100 μl of growth medium (RPMI1640, 20% FCS) on 96-well microtitre plates.
(§2) After overnight incubation at 37° C., the fluorescence values (CI values) were determined. Then the plates were treated with various substance dilutions (1E-5 M, 3E-6 M, 1E-6 M, 3E-7 M, 1E-7 M, 3E-8 M, 1E-8 M) and incubated at 37° C. over 96 hours (MOLM-13, B16F10, CHL-1 cells) or 120 hours (MOLP-8 cells). Subsequently, the fluorescence values were determined (CO values). For the data analysis, the CI values were subtracted from the CO values and the results were compared between cells which had been treated with various dilutions of the substance or only with buffer solution. The IC50 values (substance concentration needed for 50% inhibition of cell proliferation) were calculated therefrom.
(§3) The substances were tested in the cell lines in Table 2, which represent the indications specified by way of example: […]
(Alamar Blue is a resazurin reagent that responds to reducing activity.)

The test system of the next experiment is CHL-1 cells. As to the kind of experiment: Cell proliferation assay CHL-1 (alamarBlue). The class given is cell-based. To be noted: Homo sapiens, melanoma (BRAF wild-type) cells, 96 hours. On the procedure: as §1
The CHL-1 cells (ATCC, CRL-9446) were seeded at a concentration of 1000 cells/well in 100 μl of growth medium (DMEM with glutamine, 10% FCS) on 96-well microtitre plates.
as §2, §3

Experiment [1] deals with T1, BRD4 bromo domain 2 [BRD4(2)] (Homo sapiens, UniProt O60885).
T1 construct: N-terminally His6-tagged BRD4(2) (amino acids 357-445); made in house; host or cells: E. coli
As to the kind of experiment: BRD4(2)/acetylated peptide H4 TR-FRET binding assay. To be noted: His6-BRD4(2) (aa 357-445) vs acetylated histone H4 peptide. In short, it runs like this:
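His6-BRD4(2) (aa 357-445, E. coli-expressed, 100 nM) pre-incubated 10 min with compound (11 concentrations, 0.1 nM-20 μM, duplicates), then with biotinylated tetra-acetylated H4 peptide in HEPES pH 7.5 buffer, 1 h at 22 °C plus 3 h to overnight at 4 °C. TR-FRET 665/620 ratio; IC50 from 4-parameter fit.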
(Time-resolved FRET reads energy transfer from a long-lived donor to a nearby acceptor.)

A further experiment concerns B16F10 cells. As to the kind of experiment: Cell proliferation assay B16F10 (alamarBlue). In kind it is cell-based. To be noted: Mus musculus, B16-F10, melanoma (BRAF wild-type) cells, 96 hours. On the procedure:
as §1
The B16F10 cells (ATCC, CRL-6475) were seeded at a concentration of 300-500 cells/well in 100 μl of growth medium (DMEM with phenol red, 10% FCS) on 96-well microtitre plates.
as §2, §3

The test system of another experiment is MOLM-13 cells. As to the kind of experiment: Cell proliferation assay MOLM-13, method 1 (alamarBlue). In kind it is cell-based. To be noted: Homo sapiens, acute myeloid leukaemia cells, 4000 cells/well, 96-well, 96 hours. How it is done:
as §1
The MOLM-13 cells (DSMZ, ACC 554) were seeded at a concentration of 4000 cells/well in 100 μl of growth medium (RPMI1640, 10% FCS) on 96-well microtitre plates (method 1).
as §2, §3

Usually IC50 stands for the concentration at which inhibition is half-maximal. A low value points to greater potency.

Consider `CCOC(=O)N=S(C)(=O)c1cccc(Nc2ccc3c(n2)N(C2CCOCC2)[C@H](C)C(=O)N3C)c1` (mixture of isomers) [Example 10, Ethyl [(3-{[(3R)-1,3-dimethyl-2-oxo-4-(tetrahydro-2H-pyran-4-yl)-1,2,3,4-tetrahydropyrido[2,3-b]pyrazin-6-yl]amino}phenyl)(methyl)oxido-λ^6-sulphanylidene]carbamate], for which the IC50 in the experiment on MOLP-8 cells came to 281 nM; in the experiment on CHL-1 cells it was 196 nM; in experiment [1], 6120 nM; in the experiment with B16F10 cells it was 304 nM; in the experiment on MOLM-13 cells it was 368 nM.
As to `C[C@@H]1C(=O)N(C)c2ccc(Nc3cccc(S(C)(=O)=O)c3)nc2N1C1CCOCC1` [Example 1, (3R)-1,3-Dimethyl-6-{[3-(methylsulphonyl)phenyl]amino}-4-(tetrahydro-2H-pyran-4-yl)-3,4-dihydropyrido[2,3-b]pyrazin-2(1H)-one], the IC50 in the experiment with MOLP-8 cells came out at 204 nM; with CHL-1 cells it was 180 nM; in experiment [1], 121 nM; with B16F10 cells it was 285 nM; in the experiment with MOLM-13 cells it was 191 nM.
For `Cc1ccc(S(C)(=O)=O)cc1Nc1ccc2c(n1)N(C1CCOCC1)[C@H](C)C(=O)N2C` [Example 2, (3R)-1,3-Dimethyl-6-{[2-methyl-5-(methylsulphonyl)phenyl]amino}-4-(tetrahydro-2H-pyran-4-yl)-3,4-dihydropyrido[2,3-b]pyrazin-2(1H)-one] the same measures were 236 nM, 189 nM, 173 nM, 319 nM and 238 nM.
On to `COc1ccc(S(C)(=O)=O)cc1Nc1ccc2c(n1)N(C1CCOCC1)[C@H](C)C(=O)N2C` [Example 3, (3R)-6-{[2-Methoxy-5-(methylsulphonyl)phenyl]amino}-1,3-dimethyl-4-(tetrahydro-2H-pyran-4-yl)-3,4-dihydropyrido[2,3-b]pyrazin-2(1H)-one], for which the IC50 in the experiment on MOLP-8 cells was determined as 103 nM; in the experiment with CHL-1 cells, 127 nM; in experiment [1] it was 58 nM; in the experiment on B16F10 cells it was 199 nM; in the experiment with MOLM-13 cells, 175 nM.
For `C[C@@H]1C(=O)N(C)c2ccc(Nc3ccc4c(c3)S(=O)(=O)CC4)nc2N1C1CCOCC1` [Example 4, (3R)-6-[(1,1-Dioxido-2,3-dihydro-1-benzothiophen-6-yl)amino]-1,3-dimethyl-4-(tetrahydro-2H-pyran-4-yl)-3,4-dihydropyrido[2,3-b]pyrazin-2(1H)-one], in that order: 221 nM, 196 nM, 64 nM, 375 nM and 289 nM.
For `C[C@@H]1C(=O)N(C)c2ccc(Nc3cccc(S(C)(=O)=O)c3)nc2N1C1CCCCCC1` [Example 5, (3R)-4-Cycloheptyl-1,3-dimethyl-6-{[3-(methylsulphonyl)phenyl]amino}-3,4-dihydropyrido[2,3-b]pyrazin-2(1H)-one] the same measures were 560 nM, 371 nM, 96 nM, 611 nM and 651 nM.
As for `C[C@@H]1C(=O)N(C)c2ccc(Nc3cccc(S(=O)(=O)C4CC4)c3)nc2N1C1CCOCC1` [Example 6, (3R)-6-{[3-(Cyclopropylsulphonyl)phenyl]amino}-1,3-dimethyl-4-(tetrahydro-2H-pyran-4-yl)-3,4-dihydropyrido[2,3-b]pyrazin-2(1H)-one], the IC50 was found to be 67 nM with MOLP-8 cells; 46 nM with CHL-1 cells; 40 nM in experiment [1]; 87 nM with B16F10 cells; 89 nM in the experiment on MOLM-13 cells.
On to `CC(C)S(=O)(=O)c1cccc(Nc2ccc3c(n2)N(C2CCOCC2)[C@H](C)C(=O)N3C)c1` [Example 7, (3R)-6-{[3-(Isopropylsulphonyl)phenyl]amino}-1,3-dimethyl-4-(tetrahydro-2H-pyran-4-yl)-3,4-dihydropyrido[2,3-b]pyrazin-2(1H)-one], for which the IC50 is 75 nM in the experiment on MOLP-8 cells; 51 nM in the experiment on CHL-1 cells; 44 nM in experiment [1]; 104 nM in the experiment with B16F10 cells; 111 nM in the experiment on MOLM-13 cells.
For `COc1ccc(S(=O)(=O)C2CC2)cc1Nc1ccc2c(n1)N(C1CCOCC1)[C@H](C)C(=O)N2C` [Example 8, (3R)-6-{[5-(Cyclopropylsulphonyl)-2-methoxyphenyl]amino}-1,3-dimethyl-4-(tetrahydro-2H-pyran-4-yl)-3,4-dihydropyrido[2,3-b]pyrazin-2(1H)-one] the same measures were 23 nM, 18 nM, 49 nM, 37 nM and 24 nM.
For `COc1ccc(S(=O)(=O)C(C)C)cc1Nc1ccc2c(n1)N(C1CCOCC1)[C@H](C)C(=O)N2C` [Example 9, (3R)-6-{[5-(Isopropylsulphonyl)-2-methoxyphenyl]amino}-1,3-dimethyl-4-(tetrahydro-2H-pyran-4-yl)-3,4-dihydropyrido[2,3-b]pyrazin-2(1H)-one] the same measures were 38 nM, 19 nM, 53 nM, 34 nM and 42 nM.
`C[C@@H]1C(=O)N(C)c2ccc(Nc3cccc(S(C)(=O)=O)c3)nc2N1C1CCN(C)CC1` [Example 11, (3R)-1,3-Dimethyl-4-(1-methylpiperidin-4-yl)-6-{[3-(methylsulphonyl)phenyl]amino}-3,4-dihydropyrido[2,3-b]pyrazin-2(1H)-one]: the half-maximal inhibitory concentration (IC50) with MOLP-8 cells worked out at 167 nM; in the experiment on CHL-1 cells, 109 nM; in experiment [1], 75 nM; with B16F10 cells, 445 nM; in the experiment with MOLM-13 cells, 188 nM.
For `COc1ccc(S(=O)(=O)C2CC2)cc1Nc1ccc2c(n1)N(C1CCN(C)CC1)[C@H](C)C(=O)N2C` [Example 12, (3R)-6-{[5-(Cyclopropylsulphonyl)-2-methoxyphenyl]amino}-1,3-dimethyl-4-(1-methylpiperidin-4-yl)-3,4-dihydropyrido[2,3-b]pyrazin-2(1H)-one] the same measures were 22 nM, 13 nM, 67 nM, 81 nM and 20 nM.
For the molecule `COc1ccc(S(=O)(=O)C(C)C)cc1Nc1ccc2c(n1)N(C1CCN(C)CC1)[C@H](C)C(=O)N2C` [Example 13, (3R)-6-{[5-(Isopropylsulphonyl)-2-methoxyphenyl]amino}-1,3-dimethyl-4-(1-methylpiperidin-4-yl)-3,4-dihydropyrido[2,3-b]pyrazin-2(1H)-one], the IC50 stood at 15 nM with MOLP-8 cells; 11 nM in the experiment on CHL-1 cells; 62 nM in experiment [1]; 59 nM with B16F10 cells; 15 nM in the experiment on MOLM-13 cells.
As for `COc1ccc(S(C)(=O)=O)cc1Nc1ccc2c(n1)N(C(C)C)[C@H](C)C(=O)N2C` [Example 14, (3R)-4-Isopropyl-6-{[2-methoxy-5-(methylsulphonyl)phenyl]amino}-1,3-dimethyl-3,4-dihydropyrido[2,3-b]pyrazin-2(1H)-one], the IC50 amounted to 174 nM in the experiment with MOLP-8 cells; 118 nM with CHL-1 cells; 76 nM in experiment [1]; 248 nM in the experiment on B16F10 cells; 205 nM in the experiment on MOLM-13 cells.
For `COc1ccc(S(=O)(=O)C2CC2)cc1Nc1ccc2c(n1)N(C(C)C)[C@H](C)C(=O)N2C` [Example 15, (3R)-6-{[5-(Cyclopropylsulphonyl)-2-methoxyphenyl]amino}-4-isopropyl-1,3-dimethyl-3,4-dihydropyrido[2,3-b]pyrazin-2(1H)-one], in that order: 118 nM, 52 nM, 49 nM, 132 nM and 149 nM.
For `CC(C)S(=O)(=O)c1ccc(OC(F)(F)F)c(Nc2ccc3c(n2)N(C2CCOCC2)[C@H](C)C(=O)N3C)c1` [Example 38, (3R)-6-{[5-(Isopropylsulphonyl)-2-(trifluoromethoxy)phenyl]amino}-1,3-dimethyl-4-(tetrahydro-2H-pyran-4-yl)-3,4-dihydropyrido[2,3-b]pyrazin-2(1H)-one], the IC50 in the experiment on CHL-1 cells stood at 24 nM; in experiment [1], 52 nM; in the experiment with B16F10 cells, 16 nM; in the experiment on MOLM-13 cells, 32 nM.
